# Measurements: patent US20160031863A1, “HISTONE DEACETYLASE INHIBITORS AND COMPOSITIONS AND METHODS OF USE THEREOF” (CHDI FOUNDATION, INC., priority 2013, published 2016)
# Experiments:
# [1] = target: T1, Histone Deacetylase 4 (HDAC4) catalytic domain (Homo sapiens, UniProt P56524); test: Inhibition of HDAC4 catalytic domain enzymatic activity, fluorogenic substrate Boc-Lys(Tfa)-AMC; assay type: biochemical
# T1 construct: 6x histidine tag (C); purchased BioFocus
# Source text: The potency of compounds is quantified by measuring the Histone Deacetylase 4 (HDAC4) catalytic domain enzymatic activity using the fluorogenic substrate, Boc-Lys(Tfa)-AMC. The substrate is deacetylated to Boc-Lys-AMC by HDAC4. Cleavage by trypsin results in the release of the fluorophore AMC from the deacetylated substrate. The fluorescence of the sample is directly related to the histone deacetylase activity in the sample.
# (§1) Serial dilutions of the compounds being tested and control reference compound (1-(5-(3-((4-(1,3,4-oxadiazol-2-yl)phenoxy)methyl)-1,2,4-oxadiazol-5-yl)thiophen-2-yl)-2,2,2-trifluoroethanone) are made by first resuspending the lyophilized compound to a final concentration of 10 mM in 100% dimethyl sulfoxide (DMSO). Stocks of 60 μL aliquots of the 10 mM compound in DMSO are prepared and stored at −20° C. From one stock aliquot of each compound to be tested and the reference compound, a 16-point serial dilution is prepared according to Table 1 using a 125 μL 16-channel Matrix multi-channel pipette (Matrix Technologies Ltd).
# 2 μL (200×) of each diluted solution and each control (full activity: 100% DMSO alone or full inhibition 1 mM) is stamped into V-bottomed polypropylene 384-well compound plates using either the Bravo (384-well head from Agilent) or 12.5 μL 16-channel Matrix multi-channel pipette (Matrix Technologies Ltd).
# A working solution of enzyme is prepared from a 500 μg/mL stock aliquot of HDAC4 catalytic domain (thawed on ice) diluted to 0.2 μg/mL with assay buffer (50 mM Tris-HCl, 137 mM NaCl, 2.7 mM KCl, and 1 mM MgCl2 at pH 8 and equilibrated to room temperature) just prior to the addition of the enzyme to the assay.
# 5× (50 μM) substrate is prepared just prior to the addition to the assay. A 1 mM substrate stock is made by diluting a 100 mM Boc-Lys(Tfa)-AMC in DMSO solution 1:100 by adding it drop-wise to assay buffer (equilibrated to room temperature) while vortexing at slow speed to prevent precipitation. The 5× substrate is prepared by diluting the 1 mM substrate solution 1:20 by adding it drop-wise to assay buffer (equilibrated to room temperature) while vortexing at slow speed to prevent precipitation.
# 3× (30 μM) Developer/Stop Solution is prepared just prior to addition to the plate by diluting a stock solution of 10 mM reference compound 1:333 in 25 mg/mL trypsin (PAA Laboratories Ltd.) equilibrated to room temperature.
# 5 μL of each solution of 1:20 diluted compound from above is transferred to a clear bottomed, black, 384-well assay plate using the Bravo or the Janus (384-well MDT head from Perkin Elmer). Using a 16-channel Matrix multi-channel pipette, 35 μL of the working solution of HDAC4 catalytic domain enzyme (0.2 μg/mL in assay buffer) is transferred to the assay plate. The assay is then started by adding 10 μL of 5× (50 μM) substrate to the assay plates using either the Bravo, Janus or 16-channel Matrix multi-channel pipette. The assay plate is then shaken for two minutes on an orbital shaker at 900 rpm (rotations per minute). Next the plate is incubated for 15 minutes at 37° C. The reaction is stopped by adding 25 μL of 3× (30 μM) developer/stop solution to the assay plates using either the Bravo, Janus or a 16-channel Matrix multi-channel pipette. Assay plates are then shaken for 5 minutes on an orbital shaker at 1200 rpm. Next, the assay plates are incubated at 37° C. for 1 hour in a tissue culture incubator. Finally, the fluorescence is measured (Excitation: 355 nm, Emission: 460 nm) using PerkinElmer EnVision in top read mode.
# [2] = tested on: cellular histone deacetylase enzymatic activity in Jurkat E6-1 cells; test: Inhibition of cellular HDAC activity in Jurkat E6-1 cells, fluorogenic substrate Boc-Lys(Tfa)-AMC; assay type: cell-based; conditions: Homo sapiens
# Experimental: The potency of the compounds is quantified by measuring the cellular histone deacetylase enzymatic activity using the fluorogenic substrate, Boc-Lys(Tfa)-AMC. After penetration in Jurkat E6-1 cells, the substrate is deacetylated to Boc-Lys-AMC. After cell lysis and cleavage by trypsin, the fluorophore AMC is released from the deacetylated substrate only. The fluorescence of the sample is directly related to the histone deacetylase activity in the sample.
# Jurkat E6.1 cells are cultured according to standard cell culture protocols in Jurkat E6.1 Growth Media (RPMI without phenol red, 10% FBS, 10 mM HEPES, and 1 mM Sodium Pyruvate). Jurkat E6.1 cells are counted using a Coulter Counter and resuspended in Jurkat E6.1 growth media at a concentration of 75,000 cells/35 μL. 35 μL or 75,000 cells is seeded into Greiner microtitre assay plates. The plates are then incubated at 37° C. and 5% CO2 while other assay components are being prepared.
# as §1, with “DMSO.” for “dimethyl sulfoxide (DMSO).”, “70” for “60”, “pipette.” for “pipette (Matrix Technologies Ltd).”
# 2 μL (200×) of each diluted solution and each control (full activity: 100% DMSO alone or full inhibition 1 mM) is stamped into V-bottom polypropylene 384-well compound plates using either the Bravo, Janus, or 12.5 μL 16-channel Matrix multi-channel pipette. Each well with the 200× compound solution is diluted 1:20 by the addition of 38 μL Jurkat assay buffer+DMSO (9.5% DMSO, RPMI without phenol red, 0.09% FBS, 9 mM Hepes, and 0.9 mM Sodium Pyruvate equilibrated to room temperature)
# 5× (500 μM) substrate is prepared just prior to the addition to the assay. The 5× substrate is prepared by diluting a 100 mM Boc-Lys(Tfa)-AMC in DMSO solution 1:200 by adding it drop-wise to Jurkat assay medium (RPMI without phenol red, 0.1% FBS, 10 mM Hepes, and 1 mM Sodium Pyruvate equilibrated to 37° C.) while vortexing at slow speed to prevent precipitation.
# 10 mL of 3× lysis buffer is prepared with 8.8 ml of 3× stock lysis buffer (50 mM Tris-HCl, pH 8.0, 137 mM NaCl, 2.7 mM KCl, 1 mM MgCl2, 1% Nonidet P40 Substitute equilibrated to room temperature) and 1.2 mL of 3 mg/mL Trypsin equilibrated to room temperature.
# 5 μL of each solution of 1:20 diluted compound from above is transferred to the Greiner microtitre assay plates with 75,000 cells/well using the Bravo. Cells are then incubated for 2 hours at 37° C. and 5% CO2. The assay is then started by adding 10 μL of 5× (500 μM) substrate to the assay plate using either the Bravo or 16-channel Matrix multi-channel pipette. The cells are then incubated for 3 hours at 37° C. and 5% CO2. Next, 25 μL of 3× lysis buffer is added to each well using either the 125 μL 16 channel pipette or the Bravo. The assay plate is then incubated overnight (15-16 hours) at 37° C. and 5% CO2. The following day, the plates are shaken on an orbital shaker for 1 minute at 900 rpm. Finally the top read fluorescence (Excitation: 355 nm, Emission: 460 nm) is measured using PerkinElmer EnVision.
# T1 sequence (P56524 648-1032): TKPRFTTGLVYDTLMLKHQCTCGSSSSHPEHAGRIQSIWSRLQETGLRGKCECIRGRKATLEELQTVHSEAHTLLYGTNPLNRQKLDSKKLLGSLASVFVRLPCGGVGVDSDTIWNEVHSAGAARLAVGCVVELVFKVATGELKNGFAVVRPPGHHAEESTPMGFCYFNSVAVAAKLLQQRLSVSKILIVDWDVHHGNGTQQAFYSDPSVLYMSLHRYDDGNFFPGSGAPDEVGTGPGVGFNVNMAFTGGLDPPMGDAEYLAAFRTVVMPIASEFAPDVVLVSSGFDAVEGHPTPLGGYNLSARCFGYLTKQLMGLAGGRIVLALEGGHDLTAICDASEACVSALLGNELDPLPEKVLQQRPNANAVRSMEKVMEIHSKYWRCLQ
SMILES,IC50 [1],IC50 [2]
"O=C(NO)c1cc(OCc2ccccc2)nn1-c1ccccc1 [Example 13, N-Hydroxy-3-benzyloxy-1-phenyl-1H-pyrazole-5-carboxamide]",27.5 µM,> 50 µM
"O=C(NO)c1cc(C2=CCCC2)nn1-c1ccccc1 [Example 6, N-Hydroxy-3-(cyclopenten-1-yl)-1-phenyl-1H-pyrazole-5-carboxamide]",2.7 µM,20.3 µM
"CN1CC=C(c2cc(C(=O)NO)n(-c3ccccc3)n2)CC1 [Example 11, N-Hydroxy-3-(1-methyl-3,6-dihydro-2H-pyridin-4-yl)-1-phenyl-1H-pyrazole-5-carboxamide]",0.24 µM,4.07 µM
"Cc1ccccc1-c1cc(C(=O)NO)n(-c2ccccc2)n1 [Example 3, N-Hydroxy-3-(2-methylphenyl)-1-phenyl-1H-pyrazole-5-carboxamide]",0.94 µM,7.3 µM
"Cc1ccccc1-c1cc(C(=O)NO)n(-c2ccccc2)c1 [Example 15, N-Hydroxy-4-(2-methylphenyl)-1-phenyl-pyrrole-2-carboxamide]",1.4 µM,13.8 µM
"O=C(NO)c1cc(-c2ccccc2Cl)nn1-c1ccccc1 [Example 5, N-Hydroxy-3-(2-chlorophenyl)-1-phenyl-1H-pyrazole-5-carboxamide]",0.38 µM,2.82 µM
"Cc1ncccc1-c1cc(C(=O)NO)n(-c2ccccc2)n1 [Example 9, N-Hydroxy-3-(2-methyl-3-pyridyl)-1-phenyl-1H-pyrazole-5-carboxamide]",1.4 µM,6.9 µM
O=C(NO)c1cc(-c2cncc(Cl)c2)nn1-c1ccccc1 [Example 8],4.9 µM,41.6 µM

# Continued by falling IC50 [1], values first:
IC50 [1],IC50 [2],SMILES
10.3 µM,24.2 µM,"O=C(NO)c1cc(-c2ccccc2)nn1-c1ccccc1 [Example 1, N-Hydroxy-1,3-diphenylpyrazole-5-carboxamide]"
9.9 µM,46.2 µM,"O=C(NO)c1cc(N2CCCC2)nn1-c1ccccc1 [Example 14, N-Hydroxy-1-phenyl-3-pyrrolidin-1-yl-1H-pyrazole-5-carboxamide]"
2.4 µM,16 µM,"Cc1ccccc1-c1cc(C(=O)NO)n(-c2ccccc2C)n1 [Example 12, N-Hydroxy-1,3-bis(2-methylphenyl)-1H-pyrazole-5-carboxamide]"
1.8 µM,12.1 µM,"O=C(NO)c1cc(C2CCCC2)nn1-c1ccccc1 [Example 7, N-Hydroxy-3-cyclopentyl-1-phenyl-1H-pyrazole-5-carboxamide]"
0.96 µM,10.2 µM,"O=C(NO)c1cc(Cc2ccccc2)nn1-c1ccccc1 [Example 4, N-Hydroxy-3-benzyl-1-phenyl-1H-pyrazole-5-carboxamide]"
0.75 µM,5.68 µM,"Cc1ccccc1-c1cc(C(=O)NO)n(-c2cccc(F)c2C)n1 [Example 10, N-hydroxy-1-(3-fluoro-2-methyl-phenyl)-3-(2-methyl-phenyl)-1H-pyrazole-5-carboxamide]"
0.71 µM,6.17 µM,"O=C(NO)c1cc(-c2ccccc2Cl)cn1-c1ccccc1 [Example 16, N-Hydroxy-4-(2-chlorophenyl)-1-phenyl-pyrrole-2-carboxamide]"
0.12 µM,2.72 µM,"O=C(NO)c1cc(-c2cccc3ccsc23)nn1-c1ccccc1 [Example 2, N-Hydroxy-3-(benzothiophen-7-yl)-1-phenyl-1H-pyrazole-5-carboxamide]"
